Experimental data from publication PMC9986241 (Signal Transduction and Targeted Therapy, 2023).
Where two headings read alike, the source gives them in different places.

Experiments:
A375 (BRAF V600E) = assay: Cell proliferation MTT assay; format: cell-based; conditions: Homo sapiens
Method: (§1) The synergism and antagonism (CI value) were determined and analyzed using CompuSyn 1.0.
(§2) For cytotoxicity test, normal NHDF (5000 cells/well) and NHEM cell line (3000 cells/well) were planted into 96-well plates. For cell proliferation assay, A375 (1500 cells/well), SK-MEL-28 (3000 cells/well), SK-MEL-2 (4000 cells/well), and HCT116 (1500 cells/well) were planted into 96-well plates, determined concentration of drug was added after culture for 24 h. The viability of the cells was detected within 72 h using MTT solution (5 mg/mL). The absorbance at 570/490 nm was quantified by the use of the microplate reader.

SK-MEL-28 (BRAF V600E) = assay: Cell proliferation MTT assay; format: cell-based; conditions: Homo sapiens
Method: as §1, §2

HCT116 (KRAS mut) = assay: Cell proliferation MTT assay; format: cell-based; conditions: Homo sapiens, HCT-116; MTT, 72 h; read-out: IC50
Method: as §1, §2

SK-MEL-2 (NRAS mut) = assay: Cell proliferation MTT assay; format: cell-based; conditions: Homo sapiens, SK-MEL-2; MTT, 72 h; read-out: IC50
Method: as §1, §2

[1] = test system: MAPK signaling pathway (phospho-CRAF, phospho-MEK1/2, phospho-ERK1/2); assay: Western blotting of MAPK signaling pathway in cells
melanoma PDX = assay: Patient-derived xenograft (PDX); format: in vivo; conditions: oral gavage; erianin, vemurafenib 50 mg/kg once a day; cobimetinib 5 mg/kg twice a week; within 78 days
Method: Fig. 7 Erianin exerts antitumor efficacy in melanoma and colorectal cancer in vivo. a Tumor pharmacodynamic assay was performed in tumor-bearing NPG mice (tumor has been passaged from melanoma patient to mice for three generations). The photographs show tumors from melanoma PDX mice treated with vehicle or drugs. b The effect of erianin on the volume of PDX tumors over time (within 78 days) was plotted. Vehicle, erianin (50 mg/kg, once a day), vemurafenib (50 mg/kg, once a day), erianin and vemurafenib combination therapy, cobimetinib (5 mg/kg, twice a week) or vemurafenib and cobimetinib combination therapy (once a day and twice a week, respectively) were administered by oral gavage, n = 8 in each group. Tumor volume was measured once a week. […] Scale bars: 20 μm. One-way ANOVA test. ***p < 0.001. e Antitumor efficacy of erianin with or without immunity using B16F10 cell xenograft in C57BL-6J mouse. f, g Trend of tumor volume over time and tumor weight was measured after treatment on the last day of the study.

HCT116 (KRAS mut) CDX = assay: Cell-derived xenograft (CDX); format: in vivo, NOD-SCID mice; conditions: 50 mg/kg, oral gavage
Method: (§3) Tumor volume (mm^3) = (length × width × height) × 0.52. SK-MEL-2: n = 10; A375 and SK-MEL-28: n = 8; HCT116: n = 9. b The photographs show tumors from CDX mice treated with vehicle, erianin, vemurafenib, or the combination. c The weight of the tumors was quantified and expressed as the treatment groups compared with the vehicle-treated group. […] The tissue lysates were prepared from CDX tumor tissues in each treatment group. […] Each point represents the IOD values of four quantified data from one mouse. Scale bars: 50 μm.
(§4) The animal experiments were performed according to the guidelines approved by the Zhengzhou University Institutional Animal Care and Use Committee. A375 cell line (1 × 10^7 cell/mouse), SK-MEL-28 cell line (5 × 10^6 cell/mouse), SK-MEL-2 cell (5 × 10^6 cell/mouse), and HCT116 cell line (1 × 10^7 cell/mouse) were injected subcutaneously into the NOD-SCID mice (Vital River Labs, Beijing, China). For the melanoma PDX mice model, the tumor was taken after surgical operation and implanted into the NPG (Vital River Labs, Beijing, China) mice under a sterile environment. For the colorectal cancer PDX mice model, NOD-SCID mice were selected as carriers for tumor growth. The measurement of tumor size was performed twice a week using vernier caliper and the calculation of tumor volume was done according to tumor volume (mm^3) = length × width × height × 0.52.

SK-MEL-2 (NRAS mut) CDX = assay: Cell-derived xenograft (CDX); format: in vivo, NOD-SCID mice; conditions: 50 mg/kg, oral gavage
Method: as §3, §4

[2] = test system: SK-MEL-28 (BRAF V600E) CDX; assay: Cell-derived xenograft (CDX); conditions: 50 mg/kg, oral gavage, vs vehicle-treated group
Method: as §3, §4

A375 (BRAF V600E) CDX = assay: Cell-derived xenograft (CDX); conditions: 50 mg/kg, oral gavage, vs vehicle-treated group
Method: as §3, §4

[3] = A-375, MTT, 72 h, read-out: IC50
[4] = SK-MEL-28, MTT, 72 h, read-out: IC50

| IC50 (A375 (BRAF V600E); [3]) [nM] | IC50 (SK-MEL-28 (BRAF V600E); [4]) [nM] | Compound | IC50 (HCT116 (KRAS mut)) [nM] | IC50 (SK-MEL-2 (NRAS mut)) [nM] | other results |
| --- | --- | --- | --- | --- | --- |
| 60.9 ± 14.4 | 129 ± 28.3 | Cn1cnc2c(F)c(Nc3ccc(Br)cc3F)c(C(=O)NOCCO)cc21 [Binimetinib] | 509 ± 145 | 240 ± 81.2 |  |
|  |  | CC(C)(C)c1nc(-c2cccc(NS(=O)(=O)c3c(F)cccc3F)c2F)c(-c2ccnc(N)n2)s1 [Dabrafenib] | > 18000 | > 60000 | IC50 (A375 (BRAF V600E); A-375, 72 h): 36.7 ± 9.7 nM; IC50 (SK-MEL-28 (BRAF V600E); SK-MEL-28, 72 h): 41 ± 15.5 nM |
| 9.5 ± 3.9 | 6.5 ± 1.2 | COC(=O)N[C@@H](C)CNc1nccc(-c2cn(C(C)C)nc2-c2cc(Cl)cc(NS(C)(=O)=O)c2F)n1 [Encorafenib] | > 2000 | > 9000 |  |
|  |  | CNc1ncc2cc(-c3cc(NC(=O)NCCC(C)(C)C)c(F)cc3C)c(C)nc2n1 [LY3009120] |  |  | kinase activity of CRAF (phosphorylation of CRAF and MEK1/2) ([1]; low dose, 24 h): induced kinase activity of CRAF at a low dose |
| 2.2 ± 0.8 | 1.9 ± 0.2 | CC(=O)Nc1cccc(-n2c(=O)n(C3CC3)c(=O)c3c(Nc4ccc(I)cc4F)n(C)c(=O)c(C)c32)c1 [Trametinib] | 22.1 ± 9.2 | 50.6 ± 1.7 |  |

| Compound | IC50 (A375 (BRAF V600E); [3]) [nM] | IC50 (SK-MEL-28 (BRAF V600E); [4]) [nM] | IC50 (HCT116 (KRAS mut)) [nM] | IC50 (SK-MEL-2 (NRAS mut)) [nM] | other results |
| --- | --- | --- | --- | --- | --- |
| O=C(c1ccc(F)c(F)c1Nc1ccc(I)cc1F)N1CC(O)([C@@H]2CCCCN2)C1 [Cobimetinib] | 3.2 ± 1.3 | 2.6 ± 0.4 | 51.3 ± 8.9 | 119 ± 38.2 | phosphorylation of MEK1/2 ([1]; SK-MEL-2 and HCT116, 24 h): increased phosphorylation of MEK1/2; phosphorylation of ERK1/2 ([1]; both BRAF V600E and RAS mutant cells, 24 h): inhibits phosphorylation of ERK1/2 effectively; tumor volume (melanoma PDX): no differences between erianin and cobimetinib |
| CCCS(=O)(=O)Nc1ccc(F)c(C(=O)c2c[nH]c3ncc(-c4ccc(Cl)cc4)cc23)c1F [Vemurafenib, reference compound] | 314 ± 73.7 | 344 ± 36.4 | > 20000 | > 40000 | activation of MAPK signaling pathway (CRAF, MEK1/2, ERK1/2) ([1]; SK-MEL-2 and HCT116, 24 h): induced the paradoxical activation of MAPK signaling pathway; tumor volume and tumor weight (HCT116 (KRAS mut) CDX): poor effect; tumor volume and tumor weight (SK-MEL-2 (NRAS mut) CDX): poor effect; tumor volume (melanoma PDX): did not suppress tumor volume significantly; tumor volume [2]: significant decrease; tumor volume (A375 (BRAF V600E) CDX): significant decrease |
